Test results taken from patent US20140005260A1 (TRI-SERVICE GENERAL HOSPITAL, priority 2012, published 2014).

Key:
zebrafish embryos = assay: Whole mount in situ hybridization (WISH) of snail, versican and cdh5 in zebrafish embryos; format: in vivo
Protocol: EGFR inhibitor AG 1478 (CalBiochem) was dissolved in DMSO and stocked as 1 mM at -20° C. […] Before use, the solution was re-dissolved at 65° C. for 1 h. In the control group, 100 embryos were placed in a 9 cm dish filled with a volume of 30 ml embryo medium containing 0.2 mM 1-phenyl-2-thio-urea (Sigma). […] Long-term treatment during 12-72 hpf included the specification stage of valve formation at 36-55 hpf and the invagination stage of valve formation at 55 hpf. Treatment during 12-48 hpf was used to examine the gene markers versican and cdh5 which expressed at the AVC. […] During mouse embryonic valve formation, Snail (Snail) in Snail family acts as the […] of cdh5 that inhibit the transcription of cdh5. […] WISH was performed as previously described (Nucleic Acids Res 2010; 38:4384-93). Riboprobe of cdh5 was prepared by cloning its partial DNA fragment, while riboprobe of versican was provided by […] (Nature 2003; 425:633-7). […] FIG. 7H).

EGFR = EGFR signaling in zebrafish embryos (EGFR dimers, EGFR phosphorylation, GSK3β); format: in vivo
B16OVA cells = test system: B16OVA cells
Protocol: (§1) For wound healing assays, B16OVA, JC or 4T-1 cells (1×10^6) were seeded onto 6-well plates in DMEM/RPMI 1640 medium and maintained at 37° C. until they reached 95% confluence. The monolayer of cells was wounded by a sterile pipette tip to create a 1-mm cell-free path. Culture medium was removed and the samples were washed with PBS, followed by culturing in DMEM/RPMI 1640 medium with 10 μg/ml of the Mitomycin C. Cells were photographed under a low-magnification microscope. […] The distances between the wounding centre and the front of the migrating cells (vertical axis) were measured for statistical analysis. […] To determine cell migration in the absence of cell proliferation, Mitomycin C was used to block mitosis and thus allowed the analysis of cell migration in the absence of cell proliferation.

JC cells [1] = conditions: Mitomycin C alone, 10 μg/ml
Protocol: as §1

B16OVA [2] = assay: Versican V1, V2, Snail and E-cadherin protein level in treated cells; format: cell-based, murine; conditions: 15 μM for 24 hr
From the text: (§2) […]. […] […]. […] […].

JC cells [3] = assay: Tumor growth in Balb/c mice after SC injection of treated JC cells; format: in vivo; conditions: tumors from treated JC cells, vs control group and Mitomycin C-treated group
From the text: […]. […] For each group of tumors, the average volume for 3 tumors is plotted. Bars=95% confidence intervals.
Balb/c mice were inoculated by SC injection into the flank with contorl-Mitomycin C- or Amiodarone-treated JC cells. Each group had 3 mice, which were assigned to experimental groups randomly. All the other mice were sacrificed 2 weeks after treatment. […].

JC [4] = assay: Versican V1, V2, Snail and E-cadherin protein level in treated cells; format: cell-based, mouse; conditions: 15 μM for 24 hr
From the text: as §2

4T-1 cells [5] = assay: as above; format: cell-based, mouse; conditions: 15 μM for 24 hr
From the text: as §2

[6] = test system: zebrafish embryos Tg(cmlc2:HcRFP); assay: In vivo observation of cardiac valve development in zebrafish embryos by HGM/2PF
Protocol: The zebrafish AB strain, as well as transgenic lines Tg(cmlc2:HcRFP) and Tg(cmlc2:EGFP), were cultured as previously described. Heart formation was observed under fluorescent stereomicroscopy (MZ Leica). […] The excitation source was a femtosecond Cr:forsterite laser with an output wavelength of 1230 nm. Second harmonic generation (SHG) and third harmonic generation (THG; J Struct Biol. 2004 147: 19-30) were applied to observe valve development in transgenic zebrafish Tg(cmlc2:HcRFP) in vivo. RFP marked the myocardial cells, while THG (410 nm) marked all cells in yellow, and SHG (615 nm) marked the skeletal and cardiac muscles in green. Paraffin sectioning with Hematoxylin and Eosin (H&E) staining was also used to perform histochemical analysis of the heart.
EGFR inhibitor AG 1478 (CalBiochem) was dissolved in DMSO and stocked as 1 mM at −20° C. […] Before use, the solution was re-dissolved at 65° C. for 1 h. In the control group, 100 embryos were placed in a 9 cm dish filled with a volume of 30 ml embryo medium containing 0.2 mM 1-phenyl-2-thio-urea (Sigma). […] Long-term treatment during 12-72 hpf included the specification stage of valve formation at 36-55 hpf and the invagination stage of valve formation at 55 hpf. Treatment during 12-48 hpf was used to examine the gene markers versican and cdh5 which expressed at the AVC.
By using HGH/2 PF to examine the zebrafish embryos derived from transgenic line Tg(cmlc2:HcRFP), the dynamics of valve development in vivo could easily be observed. For example, at 48 hpf, there was a single layer of cells in the endocardium at the AVC (FIG. 1A). […] Finally, at 87 hpf, the elongated structure was protruding towards the ventricle (FIG. 1C).

JC cell = assay: MTT cell survival assay; format: cell-based, mouse; conditions: 24 hr
Protocol: (§3) […]. Data is represented as a percentage of the DMSO control (DMSO), which is set to 100% and is expressed as mean±SEM (n=3).
(§4) It is well known that the Versican V1 increases EGFR signaling. […]. […]. Cells were plated at a density of 1×10^4 per well in 96-well plates and incubated for 12-16 h to allow cells to adhere. After 24 h, 0.5 mg/mL 3-(4,5-dimethylthiazol-2-yl)-2,5-diphenyltetrazolium bromide (MTT; Sigma) was added, and the cells were incubated for 4 h. Following incubation, each well was added 100 μl of 10% SDS/0.01N HCl solution and shaking for 5 min. Then, the absorbance was measured at 570 nm. Results were representative of three independent experiments, each done in quintuplicate. […].

B16OVA [7] = assay: MTT cell survival assay; format: cell-based, murine; conditions: 24 hr
Protocol: as §3, §4

B16OVA [8] = assay: Level of AKT, pAKT, ERK and p-ERK in treated cells; format: cell-based, murine; conditions: 15 μM, vs control cells
From the text: (§5) […]. The EGFR signaling regulates cell proliferation through activates EGFR's intrinsic kinase and leads to activation of several downstream intracellular signaling pathways, including rat sarcoma-MAPK kinase (MEK)-extracellular-related kinase (ERK) and phosphoinositide 3-kinase (PI3K)-Akt pathways. It was reported the opposing effects of V1 and V2 on cell proliferation. […] […].

S-vcanb = assay: Western blot of S-vcanb protein in zebrafish embryos; format: in vivo; conditions: treated embryos
JC [9] = assay: Level of AKT, pAKT, ERK and p-ERK in treated cells; format: cell-based, mouse; conditions: 15 μM, vs control cells
From the text: as §5

4T-1 cells [10] = assay: Level of AKT, pAKT, ERK and p-ERK in treated cells; format: cell-based, mouse; conditions: 15 μM, vs control cells
From the text: as §5

Cdh5 = assay: Western blot of Cdh5 protein in zebrafish embryos; format: in vivo; conditions: 1.5 ng injected at one cell stage, 72 hpf embryos
Protocol: Cdh5 antibody was used to detect the amount of Cdh5 protein expression by Western blot. The embryos were dechorionated and deyolked with two extra washing steps as described in Link et al. (BMC Dev Biol 2006; 6:1). Deyolked samples were dissolved in 2 μl of 2×SDS sample buffer for each embryo and incubated for 5 min at 95[…]. After full-speed centrifugation for 1 min in a microcentrifuge to remove insoluble particles, total proteins extracted from embryos were analyzed on a 12% SDS-PAGE gel, and Western blot analysis was performed (J Biol Chem 2011; 286:6855-64) using antiserum against mouse Cdh5 (15; 1:10,000). Anti-α-tubulin and anti-β-actin served as a protein loading control. Knockdown experiments were performed as follows: morpholino nucleic acid oligomers (MOs) were purchased from GeneTools (USA): vcana-MO ([…], SEQ ID NO: 1); s-vcanb-MO ([…], SEQ ID NO: 2); snai1b-MO ([…], SEQ ID NO: 3) (Development 134, 4073-4081, 2007); cdh5-MO ([…], SEQ ID NO: 4) (Developmental Dynamics. 2004. 231, 204-213; PloS One 2010. 5, e8807); troponin T2a, cardiac-MO (5′-[…]-3′, SEQ ID NO: 5) (Nat. Genet. 2002. 31, 106-110); and standard control-MO ([…], SEQ ID NO: 6). […]

COc1cc2ncnc(Nc3cccc(Cl)c3)c2cc1OC [AG1478]
cdh5 expression at the heart field (zebrafish embryos; 7 μM, embryos at 55 to 72 hpf): ectopic expression
snail1b expression (zebrafish embryos; 7 μM, embryos at 55 to 72 hpf): lost
activity of GSK3β (EGFR; AG1478 treatment, 7 μM): increased significantly
total level of GSK3β (EGFR; AG1478 treatment, 7 μM): unchanged

CO[C@@]12[C@H](COC(N)=O)C3=C(C(=O)C(C)=C(N)C3=O)N1C[C@@H]1N[C@@H]12 [Mitomycin C]
time course of wound closure (B16OVA cells; Mitomycin C alone, 10 μg/ml): did not affect the time course of wound closure
time course of wound closure (JC cells [1]): did not affect the time course of wound closure

CCCCc1oc2ccccc2c1C(=O)c1cc(I)c(OCCN(CC)CC)c(I)c1 [Amiodarone]
E-cadherin protein level (B16OVA [2]): increased significantly
Snail protein level (B16OVA [2]): greatly reduced
Versican V1 expression (B16OVA [2]): reduced
Versican V2 expression (B16OVA [2]; vs control cells): increased
tumor growth (JC cells [3]): grew slower
snai1b mRNA expression at the AVC (zebrafish embryos; 15 μM, treated during 55-72 hpf, observed at 72 hpf): lost and decreased or even disappeared
vcana and s-vcanb expression at the heart field (zebrafish embryos; 72 hpf embryos): induced
snai1a mRNA expression in the heart (zebrafish embryos; treated during 55-72 hpf, observed at 72 hpf): still was not expressed in the heart
E-cadherin protein level (JC [4]): increased significantly
Snail protein level (JC [4]): greatly reduced
Versican V1 expression (JC [4]): reduced
Versican V2 expression (JC [4]; vs control cells): increased
E-cadherin protein level (4T-1 cells [5]): increased significantly
Snail protein level (4T-1 cells [5]): greatly reduced
Versican V1 expression (4T-1 cells [5]): no difference
Versican V2 expression (4T-1 cells [5]; vs control cells): increased
endocardial cells at the AVC ([6]; 15 μM during 12-48 hpf): no difference between treated and untreated embryos
valve structure ([6]; 15 μM during 12-72 hpf): only a small aggregation of cells were seen at the upper valve site
cellular aggregation at the valve region ([6]; 15 μM during 12-87 hpf, compared to untreated embryos): almost no cellular aggregation at the valve region
morphological change (B16OVA cells; cells at a growing phase, vs control cells): appeared more stripe and spread out than control cells
EGFR dimeration (EGFR; 72 hpf treated embryos): increased
activity of GSK3β (EGFR; Amiodarone treated embryos): increased significantly
total level of GSK3β (EGFR; Amiodarone treated embryos): unchanged
phosphorylation of EGFR (Tyr-845) (EGFR; treated embryos, dosage dependent manner): reduced
cell survival (MTT) (JC cell; 15 μM): did not influence
cell survival (MTT) (JC cell; 10˜30 μM): does not influence
cell survival (MTT) (B16OVA [7]; 15 μM): did not influence
cell survival (MTT) (B16OVA [7]; 10˜30 μM): does not influence
phosphorylated AKT (B16OVA [8]): reduced greatly
phosphorylated ERK42/44 (B16OVA [8]): reduced greatly
total level of AKT (B16OVA [8]): unchanged
total level of ERK (B16OVA [8]): unchanged
expression of S-vcanb protein (S-vcanb): increased
phosphorylated AKT (JC [9]): reduced greatly
phosphorylated ERK42/44 (JC [9]): reduced greatly
total level of AKT (JC [9]): unchanged
total level of ERK (JC [9]): unchanged
phosphorylated AKT (4T-1 cells [10]): reduced greatly
phosphorylated ERK42/44 (4T-1 cells [10]): reduced greatly
total level of AKT (4T-1 cells [10]): unchanged
total level of ERK (4T-1 cells [10]): unchanged

snail1b-MO: morpholino nucleic acid oligomer TTGACAAGA AATGAGCGTGGCATCT, SEQ ID NO: 3 (antisense TTGACAAGAAATGAGCGTGGCATCT; all phosphorodiamidate morpholino (PMO))
expression of Cdh5 protein relative to wild-type (Cdh5): 1.5 fold
